Reference: patent US8207204B2, “Triazole derivatives as SCD inhibitors” (GlaxoSmithKline LLC, priority 2007, dated 2012)
Structures can show the parent of a compound that is named as a salt.

melting point [°C] | Structure (SMILES)
166 | Cc1nc(NC(=O)c2nnn(Cc3ccc(Cl)c(Cl)c3)c2C)sc1C(=O)NCCO [Example 27, 1-[(3,4-Dichlorophenyl)methyl]-N-(5-{[(2-hydroxyethyl)-amino]carbonyl}-4-methyl-1,3-thiazol-2-yl)-5-methyl-1H-1,2,3-triazole-4-carboxamide]
129 | COCCNC(=O)c1sc(NC(=O)c2nnn(Cc3ccc(Cl)c(Cl)c3)c2C)nc1C [Example 26, 1-[(3,4-Dichlorophenyl)methyl]-5-methyl-N-[4-methyl-5-({[2-(methyloxy)ethyl]amino}carbonyl)-1,3-thiazol-2-yl]-1H-1,2,3-triazole-4-carboxamide]
174.3 | Cc1nc(NC(=O)c2nnn(Cc3ccc(Cl)c(Cl)c3)c2C)sc1C(=O)NCCC(C)C [Example 19, 1-[(3,4-Dichlorophenyl)methyl]-5-methyl-N-(4-methyl-5-{[(3-methylbutyl)amino]carbonyl}-1,3-thiazol-2-yl)-1H-1,2,3-triazole-4-carboxamide]
335.6 | CNC(=O)c1cnc(NC(=O)c2nnn(Cc3ccc(Cl)c(Cl)c3)c2C)s1 [Example 29, 1-[(3,4-Dichlorophenyl)methyl]-5-methyl-N-{5-[(methylamino)carbonyl]-1,3-thiazol-2-yl}-1H-1,2,3-triazole-4-carboxamide]
203.8 | CCOC(=O)c1nnc(NC(=O)c2nnn(Cc3ccc(Cl)c(Cl)c3)c2C)s1 [Example 3, Ethyl 5-[({1-[(3,4-dichlorophenyl)methyl]-5-methyl-1H-1,2,3-triazol-4-yl}carbonyl)amino]-1,3,4-thiadiazole-2-carboxylate]
218.5 | CNC(=O)c1sc(NC(=O)c2nnn(Cc3ccc(Cl)c(Cl)c3)c2C)nc1C [Example 18, 1-[(3,4-Dichlorophenyl)methyl]-5-methyl-N-{4-methyl-5-[(methylamino)carbonyl]-1,3-thiazol-2-yl}-1H-1,2,3-triazole-4-carboxamide]
260.4 | Cc1c(C(=O)Nc2ncc(C(=O)NCCO)s2)nnn1Cc1ccc(Cl)c(Cl)c1 [Example 31, 1-[(3,4-Dichlorophenyl)methyl]-N-(5-{[(2-hydroxyethyl)-amino]carbonyl}-1,3-thiazol-2-yl)-5-methyl-1H-1,2,3-triazole-4-carboxamide]
210.4 | Cc1nc(NC(=O)c2nnn(Cc3ccc(Cl)c(Cl)c3)c2C)sc1C [Example 10, 1-[(3,4-Dichlorophenyl)methyl]-N-(4,5-dimethyl-1,3-thiazol-2-yl)-5-methyl-1H-1,2,3-triazole-4-carboxamide]
259.3 | Cc1c(C(=O)Nc2ncc(C(=O)NCCC(C)C)s2)nnn1Cc1ccc(Cl)c(Cl)c1 [Example 23]
262.6 | Cc1nc(NC(=O)c2nnn(Cc3ccc(Cl)c(Cl)c3)c2C)sc1C(=O)O [Example 16, 2-[({1-[(3,4-Dichlorophenyl)methyl]-5-methyl-1H-1,2,3-triazol-4-yl}carbonyl)amino]-4-methyl-1,3-thiazole-5-carboxylic acid]
274.8 | O=C(Nc1ncc(C(=O)NCCO)s1)c1cn(Cc2ccc(Cl)c(Cl)c2)nn1 [Example 35, 1-[(3,4-Dichlorophenyl)methyl]-N-(5-{[(2-hydroxyethyl)amino]carbonyl}-1,3-thiazol-2-yl)-1H-1,2,3-triazole-4-carboxamide]
194.1 | CCNC(=O)c1sc(NC(=O)c2nnn(Cc3ccc(Cl)c(Cl)c3)c2C)nc1C [Example 21, 1-[(3,4-Dichlorophenyl)methyl]-N-{5-[(ethylamino)carbonyl]-4-methyl-1,3-thiazol-2-yl}-5-methyl-1H-1,2,3-triazole-4-carboxamide]
158 | COC(=O)Cc1csc(NC(=O)c2nnn(Cc3ccc(Cl)c(Cl)c3)c2C)n1 [Example 8, Methyl {2-[({1-[(3,4-dichlorophenyl)methyl]-5-methyl-1H-1,2,3-triazol-4-yl}carbonyl)amino]-1,3-thiazol-4-yl}acetate]
> 260 | Cc1c(C(=O)Nc2ncc(C=O)s2)nnn1Cc1ccc(Cl)c(Cl)c1 [Example 5, 1-[(3,4-Dichlorophenyl)methyl]-N-(5-formyl-1,3-thiazol-2-yl)-5-methyl-1H-1,2,3-triazole-4-carboxamide]
204.4 | Cc1nc(NC(=O)c2nnn(Cc3ccc(Cl)c(Cl)c3)c2C)sc1C(=O)NC(C)C [Example 20, 1-[(3,4-Dichlorophenyl)methyl]-5-methyl-N-(4-methyl-5-{[(1-methylethyl)amino]carbonyl}-1,3-thiazol-2-yl)-1H-1,2,3-triazole-4-carboxamide]
144 | Cc1nc(NC(=O)c2nnn(Cc3ccc(Cl)c(Cl)c3)c2C)sc1C(=O)N(C)C (as salt: hydrochloride) [Example 28, 1-[(3,4-Dichlorophenyl)methyl]-N-{5-[(dimethylamino)carbonyl]-4-methyl-1,3-thiazo1-2-yl}-5-methyl-1H-1,2,3-triazole-4-carboxamide]
170.5 | Cc1c(C(=O)Nc2ncc(CO)s2)nnn1Cc1ccc(Cl)c(Cl)c1 [Example 39, 1-[(3,4-Dichlorophenyl)methyl]-N-[5-(hydroxymethyl)-1,3-thiazol-2-yl]-5-methyl-1H-1,2,3-triazole-4-carboxamide]
304.9 | Cc1c(C(=O)Nc2ncc(C(=O)N(C)C)s2)nnn1Cc1ccc(Cl)c(Cl)c1 [Example 30, 1-[(3,4-Dichlorophenyl)methyl]-N-{5-[(dimethylamino)carbonyl]-1,3-thiazol-2-yl}-5-methyl-1H-1,2,3-triazole-4-carboxamide]
212 | COC(=O)c1cnc(NC(=O)c2nnn(Cc3ccc(Cl)c(Cl)c3)c2C)s1 [Example 4, Methyl 2-[({1-[(3,4-dichlorophenyl)methyl]-5-methyl-1H-1,2,3-triazol-4-yl}carbonyl)amino]-1,3-thiazole-5-carboxylate]
121 | Cc1nc(NC(=O)c2nnn(Cc3ccc(Cl)c(Cl)c3)c2C)sc1C(=O)NCCN(C)C.Cl

Further lines, the molecule ahead of its results:

Structure (SMILES) | melting point [°C]
COC(=O)c1ccc(NC(=O)c2nnn(Cc3ccc(Cl)c(Cl)c3)c2C)nc1 [Example 14, Methyl 6-[({1-[(3,4-dichlorophenyl)methyl]-5-methyl-1H-1,2,3-triazol-4-yl}carbonyl)amino]-3-pyridinecarboxylate] | 179
COCc1c(C(=O)Nc2ncc(CO)s2)nnn1Cc1ccc(Cl)c(Cl)c1 [Example 40, 1-[(3,4-Dichlorophenyl)methyl]-N-[5-(hydroxymethyl)-1,3-thiazol-2-yl]-5-[(methyloxy)methyl]-1H-1,2,3-triazole-4-carboxamide] | 205
Cc1nc(NC(=O)c2cn(Cc3ccc(Cl)c(Cl)c3)nn2)sc1C(N)=O [Example 37, N-[5-(Aminocarbonyl)-4-methyl-1,3-thiazol-2-yl]-1-[(3,4-dichlorophenyl)methyl]-1H-1,2,3-triazole-4-carboxamide] | 283
COC(=O)c1ccnc(NC(=O)c2nnn(Cc3ccc(Cl)c(Cl)c3)c2C)c1 [Example 15, Methyl 2-[({1-[(3,4-dichlorophenyl)methyl]-5-methyl-1H-1,2,3-triazol-4-yl}carbonyl)amino]-4-pyridinecarboxylate] | 172
CNC(=O)c1sc(NC(=O)c2cn(Cc3ccc(Cl)c(Cl)c3)nn2)nc1C [Example 34, 1-[(3,4-Dichlorophenyl)methyl]-N-{4-methyl-5-[(methylamino)carbonyl]-1,3-thiazol-2-yl}-1H-1,2,3-triazole-4-carboxamide] | 210.4
COCc1nnc(NC(=O)c2nnn(Cc3ccc(Cl)c(Cl)c3)c2C)s1 [Example 7, 1-[(3,4-Dichlorophenyl)methyl]-5-methyl-N-{5-[(methyloxy)methyl]-1,3,4-thiadiazo1-2-yl}-1H-1,2,3-triazole-4-carboxamide] | 178.3
CCOC(=O)c1sc(NC(=O)c2nnn(Cc3ccc(Cl)c(Cl)c3)c2C)nc1C(F)(F)F [Example 9, Ethyl 2-[({1-[(3,4-dichlorophenyl)methyl]-5-methyl-1H-1,2,3-triazol-4-yl}carbonyl)amino]-4-(trifluoromethyl)-1,3-thiazole-5-carboxylate] | 155
Cc1c(C(=O)Nc2nncs2)nnn1Cc1ccc(Cl)c(Cl)c1 [Example 38, 1-[(3,4-Dichlorophenyl)methyl]-5-methyl-N-1,3,4-thiadiazol-2-yl-1H-1,2,3-triazole-4-carboxamide] | 215.6
CCOC(=O)c1ccc2nc(NC(=O)c3nnn(Cc4ccc(Cl)c(Cl)c4)c3C)sc2c1 [Example 11, Ethyl 2-[({1-[(3,4-dichlorophenyl)methyl]-5-methyl-1H-1,2,3-triazol-4-yl}carbonyl)amino]-1,3-benzothiazole-6-carboxylate] | 199
COc1ccc2nc(NC(=O)c3nnn(Cc4ccc(Cl)c(Cl)c4)c3C)sc2c1 | 225
CNC(=O)c1ccnc(NC(=O)c2nnn(Cc3ccc(Cl)c(Cl)c3)c2C)c1 [Example 32, 2-[({1-[(3,4-Dichlorophenyl)methyl]-5-methyl-1H-1,2,3-triazol-4-yl}carbonyl)amino]-N-methyl-4-pyridine-carboxamide] | 234.1
CCNC(=O)c1sc(NC(=O)c2cn(Cc3ccc(Cl)c(Cl)c3)nn2)nc1C [Example 33, 1-[(3,4-Dichlorophenyl)methyl]-N-{5-[(ethylamino)carbonyl]-4-methyl-1,3-thiazo1-2-yl}-1H-1,2,3-triazole-4-carboxamide] | 210.6
Cc1c(C(=O)Nc2ncc(C(=O)O)o2)nnn1Cc1ccc(Cl)c(Cl)c1 [Example 17, 2-[({1-[(3,4-Dichlorophenyl)methyl]-5-methyl-1H-1,2,3-triazol-4-yl}carbonyl)amino]-1,3-oxazole-5-carboxylic acid] | 201.8
COc1ccc2nc(C(=O)Nc3nnn(Cc4ccc(Cl)c(Cl)c4)c3C)sc2c1 [Example 45, N-{1-[(3,4-Dichlorophenyl)methyl]-5-methyl-1H-1,2,3-triazol-4-yl}-6-(methyloxy)-1,3-benzothiazole-2-carboxamide] | 176
Cc1c(C(=O)Nc2nc3[nH]c(=O)[nH]c(=O)c3s2)nnn1Cc1ccc(Cl)c(Cl)c1 | 279.9
